Data from ChEMBL document CHEMBL3507680, “University of Dundee, Gates Library screen for HepG2 cell viability”.

Assay: Human HepG2 cell viability assay in 384 well format
Format: toxicity, cell-based
Parameters: dose 125 nL, time 70.5 hour; cytotoxicity at 70.5 h: concentration not given beside the values
Conditions: HepG2 cells, read-out: Inhibition

Row | Structure (SMILES) | cytotoxicity at 70.5 h
1 | Clc1ccc(OCCNC2(c3ccc(Br)cc3)CCOCC2)cc1 | 9.53%
2 | O=C(c1csc(-c2ccco2)n1)N(CC1CCOC1)C1CC1 (stereo not given) | 4.66%
3 | O=C(NCc1ccc(-n2cncn2)nc1)N(CC1CCOC1)C1CC1 (stereo not given) | -5.41%
4 | Cc1ccc(C(=O)N(Cc2ccccc2F)C2CC2)c(=O)[nH]1 | 7.09%
5 | COc1ccc(OC)c(CN(C(=O)c2ccc(C)[nH]c2=O)C2CC2)c1 | 3.46%
6 | Cc1ccc(C(=O)N(Cc2ccc(F)cc2)C2CC2)c(=O)[nH]1 | -3.98%
7 | CC(C)(C)OC(=O)NCC(=O)NCc1ccc(Cl)s1 | -0.913%
8 | CC(NC(=O)COc1ccccc1I)C1CC1 (stereo not given) | -1.97%
9 | COc1ccccc1C1(C(=O)N2CCN(CC(C)O)CC2)CC1 (stereo not given) | -0.267%
10 | CC(C)OC(=O)N1CCC(Nc2ncc(Br)cn2)CC1 | -2.18%
11 | Cc1nc(CSCCC(=O)NCC(=O)NC(C)C)cs1 | 1.26%
12 | CN(C)CC1CN(CC(=O)N2CCc3ccccc32)CCO1 (stereo not given) | 11.8%
13 | CN(C)C1CCCN(C(=O)NCCNC(=O)C2CCCCC2)C1 (stereo not given) | 3.73%
14 | COCc1ccccc1C(=O)NCC(O)c1ccccc1F (stereo not given) | -2.57%
15 | Cc1cccnc1CNc1ccc(C(=O)N2CCc3ccccc32)cn1 | 0.0725%
16 | CCCC(=O)N1CCC(Nc2ncc(Br)cn2)CC1 | 0.868%
17 | CN(C)C1CCCN(C(=O)NCCC(=O)N2CCCCCC2)C1 (stereo not given) | 0.671%
18 | CCn1ccnc1CN1CCN(c2ncnc3ccsc23)CC1C (stereo not given) | 0.44%
19 | CCC(O)CN1CCN(C(=O)C2(c3ccc(C)c(OC)c3)CC2)CC1 (stereo not given) | 4.09%
20 | COc1cc(C2(C(=O)N3CCN(CC(C)(C)O)CC3)CC2)ccc1C | -0.73%
21 | CC(C)OCCNC1(c2ccc(F)cc2)CCOCC1 | -3.2%
22 | Cc1cc(CNC(=O)N2CCN(C(C)c3cccnc3)CC2)c(C)o1 (stereo not given) | -0.922%

Row | Structure (SMILES) | cytotoxicity at 70.5 h
23 | CCOCCCNC(=O)CCSCc1csc(C)n1 | -2.1%
24 | CS(=O)(=O)NCC1CCCCN1C(=O)c1ccsc1 (stereo not given) | -2.66%
25 | CN(Cc1ccccc1F)C(C(N)=O)c1ccccc1 (stereo not given) | 5.98%
26 | Cc1cc(C2CCCN2Cc2ccc(S(=O)(=O)N3CCCC3)o2)on1 (stereo not given) | -102%
27 | CC(C)N(C)C(=O)c1ccc(CNc2cncc(Cl)n2)cc1 | -115%
28 | CC(C)CC(=O)N1CCN(Cc2csc(-c3ncccn3)n2)CC1 | -5.3%
29 | CCSc1cc(C(=O)NCCc2nnc(-c3ccco3)[nH]2)ccn1 | 20.1%
30 | CC(C)C(C)NC(=O)Nc1cccc2c1CCN(S(C)(=O)=O)C2 (stereo not given) | -2.03%
31 | Cc1c(C(=O)NCC(C)C)nnn1-c1cccc2c1CCN(C(C)C)C2 | -0.43%
32 | CCS(=O)(=O)N1CCc2c(cccc2NC(=O)NCCO)C1 | 12.8%
33 | CC(=O)Nc1cccc(OCCNC(=O)N(C)Cc2ccncc2)c1 | 20.7%
34 | COc1ccccc1OCCC(=O)NC1CCc2nc(C)cn2C1 (stereo not given) | -3.16%
35 | Cc1cn2c(n1)CCC(NC(=O)CCC1CC1)C2 (stereo not given) | -3.09%
36 | CCC(Nc1cccc(Oc2ccccn2)c1)C(N)=O (stereo not given) | -7.08%
37 | Cn1ncnc1CNC(=O)N(CCCO)C1CCc2ccccc21 (stereo not given) | -6.34%
38 | COc1cc(C(=O)N(Cc2cccs2)C2CC2)cc2c1OCCO2 | 16%
39 | Cc1cn2c(n1)CCC(NC(=O)CCCOCc1ccccc1)C2 (stereo not given) | -12.5%
40 | CCc1nnc(CN2CCCC(Cn3nc(C)nc3C)C2)o1 (stereo not given) | -11.6%
41 | COc1ccc(CC(=O)NC2CCc3nc(C)cn3C2)cc1 (stereo not given) | -7.41%
42 | CN(C(=O)Cn1nc(-c2ccc(F)cc2)oc1=O)c1ccccc1 | -11.5%
43 | Cc1cccnc1NC(=O)CNC(=O)c1ccccc1Cl | -14.5%
44 | O=C(NCC(O)c1ccc(F)cc1F)c1cccnc1O (stereo not given) | -15.5%

Row | Structure (SMILES) | cytotoxicity at 70.5 h
45 | O=C(NC1CC1)c1cc(NC(=O)N2CCCC2)ccc1Cl | -13.8%
46 | O=C(NC1CC1)c1cc(NC(=O)N2CCOCC2)ccc1Cl | -15.3%
47 | O=C(c1ccncc1)N1CCCC1C1CCN(Cc2ccccc2)CC1 (stereo not given) | 0.737%
48 | CC(=O)N1CCCN(C(=O)Cc2ccc3c(c2)OCO3)CC1 | -14.3%
49 | O=C(c1ccoc1)N1CCCC1C1CCN(Cc2ccccc2)CC1 (stereo not given) | 23.5%
50 | Cc1nc(NC(=O)c2cccnc2N2CCOCC2)sc1C | -13.9%
51 | O=C(CN1CCC(C(=O)c2cc(F)ccc2F)CC1)NC1CC1 | -12%
52 | CCOc1ncccc1C(=O)NCC(O)c1ccc(F)c(F)c1 (stereo not given) | -6.21%
53 | COCCNC(=O)Nc1ccc(C(=O)N2CCSCC2)cc1C | -12.4%
54 | Cc1n[nH]c(C2CN(C(=O)c3ccc4c(c3)CCCC4)CCO2)n1 (stereo not given) | 21%
55 | Cc1n[nH]c(C2CN(C(=O)c3scnc3C)CCO2)n1 (stereo not given) | -7.66%
56 | CC(=O)Nc1nc(CN2CCCC2Cn2cccn2)cs1 (stereo not given) | -6.85%
57 | CCN(C(=O)C1CCC1)C(c1cccnc1)c1ccc2c(c1)CCO2 (stereo not given) | 38.8%
58 | CCn1c(C)nnc1CN(C)C1CCN(CCc2cccs2)C1 (stereo not given) | 10.5%
59 | CCN1CCCN(c2ncccc2C(=O)N2CCCCC2)CC1 | 9.71%
60 | Cc1nc(CNCC2CCCN2c2cccnn2)oc1C (stereo not given) | -4.96%
61 | CCOC(=O)N1CCN(CC(=O)Nc2ccc(F)cc2Cl)CC1 | -8.51%
62 | CC(=O)c1c(F)cccc1N1CCC(NS(=O)(=O)c2ccccc2)CC1 | 1.15%
63 | O=C(Nc1nccs1)NC1CCOc2ccccc21 (stereo not given) | -1.72%
64 | Cc1ccc(S(=O)(=O)N(C)CC(N)=O)c(Cl)c1 | -10.6%
65 | Cc1csc(N2CCN(C(=O)c3cc(Cl)c[nH]3)CC2)n1 | -0.933%
66 | O=C(Cn1cc(NC(=O)c2ccc(F)cc2F)cn1)NC1CCCC1 | -4.45%

Row | Structure (SMILES) | cytotoxicity at 70.5 h
67 | Cc1nn(C(C)C)c(C)c1NC(=O)c1ccc(F)cc1 | -2.59%
68 | Cc1noc(C)c1CNC(=O)N1CCN(CC2CC2)CC1 | -5.87%
69 | Cc1nn(C(C)C)c(C)c1NC(=O)c1cccnc1 | 1.88%
70 | CC1Cc2ccccc2N1Cc1occc1C(=O)NCC(=O)N(C)C (stereo not given) | -1.83%
71 | CCCN(C)c1ccc(C(=O)Nc2c(C)nn(C(C)C)c2C)cc1 | -3.3%
72 | CCN(CC)c1ccc(NS(=O)(=O)c2cccnc2)cn1 | -1.98%
73 | COc1cc(C)nc(N2CCN(C(=O)c3cc(Cl)c[nH]3)CC2)n1 | -1.56%
74 | CNC(=O)COC(=O)c1ccoc1CN1c2ccccc2CC1C (stereo not given) | 0.373%
75 | CC(C)Oc1cccc(C(O)CNC(=O)Nc2cccs2)c1 (stereo not given) | -4.72%
76 | CS(=O)(=O)c1ccc(OCCNCc2c(F)cccc2F)cc1 | -3.48%
77 | CS(=O)(=O)c1ccc(OCCNCc2cccc(O)c2)cc1 | -0.254%
78 | CCS(=O)(=O)N(C)C1CCN(c2cccc(F)c2C(C)=O)CC1 | -4.38%
79 | CCN(C(=O)C1CC1)C(c1cccnc1)c1ccc2c(c1)CCO2 (stereo not given) | -5.96%
80 | COC(=O)CN1CCN(c2cccc(C)c2)CC1 | -2.66%
81 | COCCNC(=O)c1ccoc1CN1c2ccccc2CC1C (stereo not given) | -6.26%
82 | COc1cccc(CN(C)C(=O)CCC(=O)c2ccccc2)c1OC | -9.57%
83 | CCN(C)C(=O)CCC(=O)c1cccs1 | -7.69%
84 | NC(=O)CSc1ccccc1NC(=O)C1CCCC1 | -5.87%
85 | N#Cc1ncn(CCC(=O)Nc2cccc(Cl)c2)n1 | -8.53%
